These results are taken from BindingDB's records for doi:10.1021/jm00157a006 (1987).

By IC50 is commonly meant the concentration at which inhibition is half-maximal.

Non-standard residues stand in square brackets, D forms with d. Residues, ends and D or L forms follow the SMILES beside them. *: point of attachment. Ala(1-Adamantyl) = N[C@@H](CC12CC3CC(CC(C3)C1)C2)C(=O)O; Sta = CC(C)C[C@H](N)[C@@H](O)CC(=O)O; Cbz = O=C(OCc1ccccc1)*; Boc = CC(C)(C)OC(=O)*

For assay [1], the target named is Renin (Sus scrofa). Put plainly: In vitro inhibitory activity against hog plasma renin.
The target in assay [2] is Renin (Sus scrofa). In words: Inhibition of hog […] plasma renin activity.

As for `COC(=O)C[C@H](O)[C@H](CC(C)C)NC(=O)[C@H](C)NC(=O)C[C@H](O)[C@H](CC(C)C)NC(=O)[C@H](Cc1c[nH]cn1)NC(=O)[C@H](CC12CC3CC(CC(C3)C1)C2)NC(=O)OC(C)(C)C` [4-(2-{4-[2-(3-Adamantan-1-yl-2-tert-butoxycarbonylamino-propionylamino)-3-(1H-imidazol-4-yl)-propionylamino]-3-hydroxy-6-methyl-heptanoylamino}-propionylamino)-3-hydroxy-6-methyl-heptanoic acid methyl ester] (Boc-[Ala(1-Adamantyl)]H[Sta]A[Sta]-OMe), the IC50 on Renin (Sus scrofa) [1] came to 0.6 µM.
In turn, `COC(=O)C[C@H](O)[C@H](CC(C)C)NC(=O)[C@H](C)NC(=O)C[C@H](O)[C@H](CC(C)C)NC(=O)[C@@H](NC(=O)[C@H](Cc1c[nH]c2ccccc12)NC(=O)OCc1ccccc1)C(C)C` [4-[2-(4-{2-[2-Benzyloxycarbonylamino-3-(1H-indol-3-yl)-propionylamino]-3-methyl-butyrylamino}-3-hydroxy-6-methyl-heptanoylamino)-propionylamino]-3-hydroxy-6-methyl-heptanoic acid methyl ester] (Cbz-WV[Sta]A[Sta]-OMe) had an IC50 on Renin (Sus scrofa) [2] of 0.015 µM.
At Renin (Sus scrofa) [1], `COC(=O)C[C@H](O)[C@H](CC(C)C)NC(=O)[C@H](C)NC(=O)C[C@H](O)[C@H](CC(C)C)NC(=O)[C@H](Cc1ccccc1)NC(=O)[C@H](Cc1ccccc1)NC(=O)OC(C)(C)C` [4-(2-{4-[2-(2-tert-Butoxycarbonylamino-3-phenyl-propionylamino)-3-phenyl-propionylamino]-3-hydroxy-6-methyl-heptanoylamino}-propionylamino)-3-hydroxy-6-methyl-heptanoic acid methyl ester] yielded a concentration for half-maximal inhibition (IC50) of 0.052 µM.
